Format in all cases: physicochemical
Data set [1] is described as follows: Spectrophotometric testing: dye hue (λmax and half-bandwidth). To be noted: dye image, density about 1.0, C41 processing. How it is done:
(§1) Each coupler of the invention and each comparison coupler was dissolved in half its weight of tricresylphosphate as the coupler solvent using 2-(2-butoxyethoxy)ethyl acetate as the auxiliary solvent. The coupler was dispersed in a gelatin solution and the auxiliary solvent was removed by evaporation under reduced pressure.
(§2) Experimental photographic coatings were prepared by coating a cellulose acetate film support with a photosensitive layer comprising a dispersion of the coupler as formulated above coated at a laydown of 1.04 mmol m^-2, a silver chlorobromide emulsion at 1.61 gm^-2 Ag, gelatin at 2.42 gm^-2 and a hardener at 0.06 gm^-2. An overcoat containing gelatin at 1.5 gm^-2 was applied to the photosensitive layer.
(§3) The dried experimental coating was then slit and chopped into test strips.
(§4) The test strips were exposed through a neutral density step-wedge test object. The strips were then processed through a standard C41 processing cycle as described in the British Journal of Photographic Annual 1977, pages 204-5. The processed strips were then dried to give stepped dye images.
(§5) Test strips were exposed as above through a step-wedge test object and appropriate filters to give to give an optical density of about 1.0. The strips were processed using the standard conditions described above and samples cut from the dye image step with density closest to 1.0. Visible absorption spectra (normalized to 1.0 density) were obtained using a spectrophotometer.
Dye hues are expressed in terms of the wavelength corresponding to the maximum absorption peak (λmax) and the half-bandwidth (HBW) calculated from the spectrophotometric curves.
(§6) In the following Examples, Couplers 1 to 6 are as defined above. Comparison Couplers C-1 to C-6 have the same structures as Couplers 1 to 6, respectively, except that the silyl group is replaced by a hydrogen atom. For example, Coupler C-1 has the structure depicted by Formula I wherein Q=C1 and R=H.

The nature of data set [2]: Dye stability testing: dark keeping, dark/wet fade. The note with it: dye image from coupler, dark oven, 60° C., 70% relative humidity, fractional density change at absorption maximum. How it is done:
as §1, §2, §3, §4, §5
Dye sample patches having a density of about 1.0 were prepared as for spectrophotometric testing and their absorption spectram measured as above.
[…] The spectrophotometric curves of the samples were then remeasured and the degree of fade quoted as the fractional decrease in density at the absorption maximum relative to the initial density prior to fading. The results are presented as dark/wet fade data.
as §6

Data set [3] in a line: Solubility of the coupler in di-n-butylphthalate coupler solvent (dye dispersibility).
Source text: as §6

Consider six compounds from US4973545A, “Photographic couplers with aryloxysilyl groups” (Eastman Kodak Company, priority 1988, dated 1990).

Take `CCCCCCCCCCC(Oc1ccc(S(=O)(=O)c2ccc(O)cc2)cc1)C(=O)Nc1ccc(CCCc2n[nH]c3c(Cl)c(C)nn23)cc1` (stereo not drawn) [Coupler C-1]: in data set [1], the HBW (half-bandwidth) of dye absorption is 89.5 nm and the λmax of dye came to 553. For the same compound, in data set [2], the “Dark/Wet Fade, 1 wk” value is listed as “+0.07”; the “Dark/Wet Fade, 3 wk” value is listed as “+0.06”; the “Dark/Wet Fade” value is “+0.05”. In addition, the Solubility entry in data set [3] (20 mg in 1 ml di-n-butylphthalate, 2 min on steam bath at 80° C.) is listed as “soluble”. In data set [3] (40 mg in 1 ml di-n-butylphthalate, 6 min on steam bath at 80° C.), the Solubility entry is listed as “soluble”. The Solubility entry in data set [3] (100 mg in 1 ml di-n-butylphthalate, 6 min on steam bath at 80° C.) is “insoluble”.

With `CCCCCCCCCCC(Oc1ccc(S(=O)(=O)c2ccc(O[Si](C)(C)C(C)(C)C)cc2)cc1)C(=O)Nc1ccc(CCCc2n[nH]c3c(Cl)c(C)nn23)cc1` (stereo not drawn) [Coupler 1], in data set [1], the HBW (half-bandwidth) of dye absorption stood at 86.5 nm and the λmax of dye is reported as 548.5. Besides, in data set [2], the “Dark/Wet Fade, 1 wk” value is on record as “+0.02”; the “Dark/Wet Fade, 3 wk” value is on record as 0.00; the “Dark/Wet Fade” value was “+0.01”. In addition, the Solubility entry in data set [3] (80 mg in 0.05 ml di-n-butylphthalate, 1 min on steam bath at 80° C.) is “soluble”. In data set [3] (80 mg in 0.1 ml di-n-butylphthalate, 1 min on steam bath at 80° C.), the Solubility entry was “soluble”. Besides, in data set [3] (compared with Coupler C-1 under these conditions (di-n-butylphthalate, steam bath 80° C.)), the “Solubility relative to Coupler C-1” value is listed as “greater than ten times more soluble”.

For `CCCCCCCCCCCCC(Oc1ccc(O)c(C(C)(C)C)c1)C(=O)Nc1ccc(Cl)c(NC2=NN(c3c(Cl)cc(Cl)cc3Cl)C(=O)C2)c1` (stereo not drawn) [Coupler C-3], in data set [1], the HBW (half-bandwidth) of dye absorption was found to be 82 nm and the λmax of dye came to 544.5. Further, in data set [2], the “Dark/Wet Fade, 1 wk” value is given as -0.04; the “Dark/Wet Fade, 3 wk” value is recorded as -0.09; the “Dark/Wet Fade” value was -0.08.

As to `CCCCCCCCCCCCC(Oc1ccc(O[Si](C)(C)C(C)(C)C)c(C(C)(C)C)c1)C(=O)Nc1ccc(Cl)c(NC2=NN(c3c(Cl)cc(Cl)cc3Cl)C(=O)C2)c1` (stereo not drawn) [Coupler 3], in data set [1], the HBW (half-bandwidth) of dye absorption was 78.5 nm and the λmax of dye amounted to 539.5. Moreover, in data set [2], the “Dark/Wet Fade, 1 wk” value was -0.02; the “Dark/Wet Fade, 3 wk” value was -0.09; the “Dark/Wet Fade” value is reported as -0.04.

Regarding `CCCCCCCCCCC(Oc1ccc(S(=O)(=O)c2ccc(O[Si](C)(C)C(C)(C)C)cc2)cc1)C(=O)Nc1ccc(Cl)c(NC2=NN(c3c(Cl)cc(Cl)cc3Cl)C(=O)C2)c1` (stereo not drawn) [Coupler 4], in data set [1], the HBW (half-bandwidth) of dye absorption came out at 84.5 nm and the λmax of dye came to 541.5.

In data set [1], `CCCCCCCCCCC(Oc1ccc(S(=O)(=O)c2ccc(O)cc2)cc1)C(=O)Nc1ccc(Cl)c(NC2=NN(c3c(Cl)cc(Cl)cc3Cl)C(=O)C2)c1` (stereo not drawn) [Coupler C-4] displayed an HBW (half-bandwidth) of dye absorption of 92 nm and a λmax of dye of 545.5.
